# Assay results taken from US20250042889A1, “3CLPRO PROTEASE INHIBITOR” (SHANGHAI QILU PHARMACEUTICAL RESEARCH AND DEVELOPMENT …, priority 2021, published 2025).
# Target: SARS-COV-2 3CLpro/Mpro protease (Severe acute respiratory syndrome coronavirus 2 (2019-nCoV) (SARS-CoV-2), UniProt P0DTD1)
# Experiment: Inhibitory effect on SARS-COV-2 3CLpro/Mpro protease by fluorescence resonance energy transfer
# Assay type: biochemical
# Conditions: IC50 (nM), Inhibition on SARS-CoV-2 3CLpro/Mpro protease, activity intervals A-D
row,SMILES,IC50 [nM]
1,CNc1cncc(C(=O)N2CCC[C@@H](Nc3c(C(=O)N4C5CCC4COC5)cc(Br)cc3[N+](=O)[O-])C2)c1 [Example 358],10 to 50
2,CNc1cncc(C(=O)N2CCC[C@@H](Nc3c(C(=O)N4C5CCCC4CCC5)cc(Br)cc3[N+](=O)[O-])C2)c1 [Example 292],10 to 50

# Same assay, conditions: activity intervals A-D, read-out: IC50 (nM), Inhibition on SARS-CoV-2 3CLpro/Mpro protease
row,SMILES,IC50 [nM]
1,COCCN1CCN(C(=O)c2cc(Br)cc([N+](=O)[O-])c2NC2CN(C(=O)c3cncc(I)c3)CC2(F)F)CC1 (stereo not shown) [Example 181],10 to 50
2,CNc1cncc(C(=O)N2C[C@H](Nc3c(C(=O)N4CCC(C)(C)CC4)cc(Br)cc3[N+](=O)[O-])C3(CC3)C2)c1 [Example 87],10 to 50
3,C[C@@H]1CN(C(=O)c2cc(Br)cc([N+](=O)[O-])c2N[C@@H]2CCCN(C(=O)[C@@H]3CCCOC3)C2)C[C@H](C)O1 [Example 348],10 to 50
4,"CNc1cncc(C(=O)N2C[C@H](Nc3c(C(=O)N4C[C@@H](C)O[C@@H](C)C4)cc(Br)cc3[N+](=O)[O-])[C@@H](OCc3ccc(C(F)(F)F)nc3)C2)c1 [Example 457, (5-Bromo-2-((3S,4S)-1-(5-(methylamino)nicotinoyl)-4-((6-(trifluoromethyl)pyridin-3-yl)methoxy)pyrrolidin-3-amino)-3-nitrophenyl)((2S,6R)-2,6-dimethylmorpholinyl)methanone]",100 to 200
5,CNc1cncc(C(=O)N[C@H]2CCCC[C@H]2Nc2c(C(=O)N3C[C@@H](C)O[C@H](C)C3)cc(Br)cc2[N+](=O)[O-])c1 [Example 223],10 to 50
6,CNc1cncc(C(=O)N2CCC[C@@H](Nc3c(C(=O)N4CCC5(CC4)CCC(C)(C)O5)cc(Br)cc3[N+](=O)[O-])C2)c1 [Example 293],10 to 50
7,CNc1cncc(C(=O)N2CCC[C@@H](Nc3c(C(=O)N4CCOC[C@@H]4C)cc(Br)cc3[N+](=O)[O-])C2)c1 [Example 356],10 to 50
8,Cc1cc(C(=O)N2CCC[C@@H](Nc3c(C(=O)N4CC(O)CC(Cl)C4)cc(Br)cc3[N+](=O)[O-])C2)cc(=O)[nH]1 (stereo partly shown) [Example 159],< 10
9,CNc1ccc2c(C(=O)N3CCC[C@@H](Nc4c(C(=O)N5C[C@@H](C)O[C@@H](C)C5)cc(Br)cc4[N+](=O)[O-])C3)cncc2c1 [Example 326],10 to 50
10,CNc1cncc(C(=O)N2C[C@H](Nc3c(C(=O)N4CC5CCC(C4)O5)cc(Br)cc3[N+](=O)[O-])[C@@H](OC)C2)c1 [Example 360],10 to 50
11,C[C@@H]1CN(C(=O)c2cc(Br)cc([N+](=O)[O-])c2N[C@@H]2CCCN(C(=O)c3cncc4[nH]ccc34)C2)C[C@H](C)O1 [Example 17],10 to 50
12,Cc1cc(C(=O)N2CCC[C@@H](Nc3c(C(=O)N4CCCCC4)cc(Br)cc3[N+](=O)[O-])C2)cc(=O)[nH]1 [Example 149],10 to 50
13,CNc1cncc(C(=O)N2C[C@H](Nc3c(C(=O)N4CCO[C@H](C)C4)cc(Br)cc3[N+](=O)[O-])[C@@H](OC)C2)c1 [Example 322],10 to 50
14,CNc1cncc(C(=O)N[C@H]2CCCC[C@H]2Nc2c(C(=O)N3C[C@H](C)O[C@@H](C)C3)cc(Br)cc2[N+](=O)[O-])c1 [Example 217],50 to 100
15,O=C(N[C@H]1CCOC[C@H]1Nc1c(C(=O)N2CCC(F)(F)CC2)cc(Br)cc1[N+](=O)[O-])c1cncc2cc(Cl)ccc12 [Example 185],10 to 50
16,CNc1cncc(C(=O)N2CCC[C@@H](Nc3c(C(=O)N4CC5COCC5C4)cc(Br)cc3[N+](=O)[O-])C2)c1 (stereo partly shown) [Example 232],10 to 50
17,"CNc1cncc(C(=O)N2CCC[C@@H](Nc3c(C(=O)N4CCN(C(=O)C(F)(F)F)CC4)cc(Br)cc3[N+](=O)[O-])C2)c1 [Example 23, (R)-1-(4-(5-bromo-2-((1-(5-(methylamino)nicotinoyl)piperidin-3-yl)amino)-3-nitrobenzoyl)piperazin-1-yl)-2,2,2-trifluoroethan-1-one]",10 to 50
18,CC1(Nc2c(C(=O)N3CCCCC3)cc(Br)cc2[N+](=O)[O-])CCCN(C(=O)c2cncc3ccccc23)C1 (stereo not shown) [Example 102],10 to 50
19,Cc1cc(C(=O)N2CC(Nc3c(C(=O)N4CCC5(CCCCC5)CC4)cc(Br)cc3[N+](=O)[O-])C(F)(F)C2)cc(=O)[nH]1 (stereo not shown) [Example 160],10 to 50
20,CNc1cncc(C(=O)N2CCC[C@@H](Nc3c(C(=O)N4CCO[C@H](C(F)F)C4)cc(Br)cc3[N+](=O)[O-])C2)c1 [Example 55],10 to 50
21,"CNc1cncc(C(=O)N2C[C@H](Nc3c(-c4nnn(C)n4)cc(Br)cc3[N+](=O)[O-])[C@@H](OC)C2)c1 [Example 440, ((3S,4S)-3-((4-bromo-2-(2-methyl-2H-tetrazol-5-yl)-6-nitrophenyl)amino)-4-methoxypyrrolidin-1-yl)(5-(methylamino)pyridin-3-yl)methanone]",50 to 100
22,O=C(c1cc(Br)cc([N+](=O)[O-])c1N[C@@H]1CCCN(C(=O)c2cncc3ccccc23)C1)N1CCCC1 [Example 39],< 10
23,CNc1cncc(C(=O)N2CCC[C@@H](Nc3c(C(=O)N4CCC5(CC4)CNCC(F)(F)O5)cc(Br)cc3[N+](=O)[O-])C2)c1 [Example 338],10 to 50
24,CNc1cncc(C(=O)N2CC(Nc3c(C(=O)N4CCC[C@H](C)C4)cc(Br)cc3[N+](=O)[O-])C(C)(C)C2)c1 (stereo partly shown) [Example 173],10 to 50
25,C[C@@H]1CN(C(=O)c2cc(Br)cc([N+](=O)[O-])c2N[C@@H]2CCCC[C@@H]2NC(=O)c2cc(=O)[nH]c3ccccc23)C[C@H](C)O1 [Example 121],< 10

row,SMILES,IC50 [nM]
1,O=C(N[C@H]1CCCC[C@H]1Nc1c(C(=O)N2CC[C@@H](O)C2)cc(Br)cc1C(F)(F)F)c1cncc2cc(Cl)ccc12 [Example 126],10 to 50
2,CNc1cncc(C(=O)N2C[C@H](Nc3c(C(=O)N4C[C@H](C)C[C@@H](C)C4)cc(Br)cc3[N+](=O)[O-])C(F)(F)C2)c1 [Example 202],10 to 50
3,CNc1cncc(C(=O)N2CCC[C@@H](Nc3c(C(=O)N4CC(=O)NC(C)C4)cc(Br)cc3[N+](=O)[O-])C2)c1 (stereo partly shown) [Example 96],50 to 100
4,CNc1cncc(C(=O)N2CCC[C@@H](Nc3c(C(=O)N4CC5CCC(C4)O5)cc(Br)cc3[N+](=O)[O-])C2)c1 [Example 269],10 to 50
5,CNc1cncc(C(=O)N2CCC[C@@H](Nc3c(C(=O)N4CCC=C(C)C4)cc(Br)cc3[N+](=O)[O-])C2)c1 [Example 310],10 to 50
6,CNc1cncc(C(=O)N2C[C@H](Nc3c(C(=O)N4C[C@@H](C)O[C@@H](C)C4)cc(Br)cc3[N+](=O)[O-])C[C@H]2C(=O)Nc2ccnc(C(F)(F)F)n2)c1 [Example 428],50 to 100
7,C[C@@H]1CN(C(=O)c2cc(Br)cc([N+](=O)[O-])c2N[C@@H]2CCCN(C(=O)c3cncc4[nH]cnc34)C2)C[C@H](C)O1 [Example 151],10 to 50
8,CNc1cncc(C(=O)N2C[C@H](Nc3c(C(=O)N4C[C@@H](C)O[C@@H](C)C4)cc(Br)cc3[N+](=O)[O-])C[C@H]2C(=O)N[C@H]2CC(=O)N(C)C2)c1 [Example 437],50 to 100
9,CNc1cncc(C(=O)N2C[C@H](Nc3c(C(=O)N4C[C@@H](C)O[C@@H](C)C4)cc(Br)cc3[N+](=O)[O-])C[C@H]2C#Cc2ccn(C)n2)c1 [Example 414],100 to 200
10,O=C(N[C@H]1CCOC[C@H]1Nc1c(C(=O)N2CCCCC2)cc(Br)cc1[N+](=O)[O-])c1cncc2ccccc12 [Example 205],< 10
11,CNc1cncc(C(=O)N2CCC[C@@H](Nc3c(C(=O)N4CCC(OC)(C(F)(F)F)CC4)cc(Br)cc3[N+](=O)[O-])C2)c1 [Example 281],50 to 100
12,CNc1cncc(C(=O)N[C@H]2CCOC[C@H]2Nc2c(C(=O)N3CCC[C@H](C)C3)cc(Br)cc2[N+](=O)[O-])c1 [Example 234],10 to 50
13,CNc1cncc(C(=O)N2C[C@H](Nc3c(C(=O)N4CCCCC4)cc(Br)cc3[N+](=O)[O-])[C@@H](OC)C2)c1 [Example 306],10 to 50
14,O=C1C[C@H](C(=O)N2CCC[C@@H](Nc3c(C(=O)N4CCCCC4)cc(Br)cc3[N+](=O)[O-])C2)c2ccccc2N1 [Example 264],10 to 50
15,O=C(c1cc(=O)[nH]c(=O)[nH]1)N1CCC[C@@H](Nc2c(C(=O)N3CCC(F)(F)CC3)cc(Br)cc2[N+](=O)[O-])C1 [Example 53],50 to 100
16,O=C(c1cncc(Br)c1)N1CC(Nc2c(C(=O)N3CCC(F)(F)CC3)cc(Br)cc2[N+](=O)[O-])C(F)(F)C1 (stereo not shown) [Example 104],10 to 50
17,O=C(c1cc(Br)cc([N+](=O)[O-])c1N[C@@H]1CCCN(C(=O)c2cncc3ccccc23)C1)N1CCOCC1 [Example 38],< 10
18,CNc1cncc(C(=O)N2CCC[C@@H](Nc3c(C(=O)N4CC(O)CC(F)(F)C4)cc(Br)cc3[N+](=O)[O-])C2)c1 (stereo partly shown) [Example 303],10 to 50
19,CNc1cncc(C(=O)N2CC(Nc3c(C(=O)N4CCN(CC(F)(F)F)CC4)cc(Br)cc3[N+](=O)[O-])C(F)(F)C2)c1 (stereo not shown) [Example 98],10 to 50
20,CNc1cncc(C(=O)N2C[C@H](Nc3c(C(=O)N4CCOC[C@H]4C)cc(Br)cc3[N+](=O)[O-])[C@@H](OC)C2)c1 [Example 367],10 to 50
21,CNc1cncc(C(=O)N2CCC[C@@H](Nc3c(C(=O)N4CC(C)CC(O)C4)cc(Br)cc3[N+](=O)[O-])C2)c1 (stereo partly shown) [Example 258],10 to 50
22,COCCN1[C@H](C)CN(C(=O)c2cc(Br)cc([N+](=O)[O-])c2N[C@@H]2COCC[C@@H]2NC(=O)c2cncc3ccccc23)C[C@@H]1C [Example 195],10 to 50
23,"CO[C@H]1CN(C(=O)c2cncc3[nH]nc(Cl)c23)C[C@@H]1Nc1c(C(=O)N2C[C@@H](C)O[C@@H](C)C2)cc(Br)cc1[N+](=O)[O-] [Example 444, (5-Bromo-2-(((3S,4S)-1-(3-chloro-1H-pyrazolo[3,4-c]pyridin-4-carbonyl)-4-methoxypyrrolidin-3-yl)amino)-3-nitrophenyl)((2S,6R)-2,6-dimethylmorpholinyl)methanone]",10 to 50
24,O=C(c1cncc(O)c1)N1CCC[C@@H](Nc2c(C(=O)N3CCC(F)(F)CC3)cc(Br)cc2[N+](=O)[O-])C1 [Example 50],50 to 100
25,CNc1cncc(C(=O)N2C[C@H](Nc3c(C(=O)N4C[C@@H](C)O[C@@H](C)C4)cc(Br)cc3[N+](=O)[O-])C[C@H]2C(=O)NCc2ccncc2)c1 [Example 395],50 to 100
